# Biological target: FP receptor (Homo sapiens (Human), UniProt P43088)
# Test: In vitro test of inhibition of human FP receptor activity (PGF2α-induced calcium flux in FP-expressing CHEM1 cells)
# Type: cell-based
# Conditions: PGF2α-induced (2 nM) calcium flux in FP-expressing CHEM1 cells; some as mean values from multiple determinations
# Source text: Table 1 below lists the IC50 values from this assay for individual working examples of the invention (some as mean values from multiple independent individual determinations): […]
# FP receptor, sequence (P43088 whole entry): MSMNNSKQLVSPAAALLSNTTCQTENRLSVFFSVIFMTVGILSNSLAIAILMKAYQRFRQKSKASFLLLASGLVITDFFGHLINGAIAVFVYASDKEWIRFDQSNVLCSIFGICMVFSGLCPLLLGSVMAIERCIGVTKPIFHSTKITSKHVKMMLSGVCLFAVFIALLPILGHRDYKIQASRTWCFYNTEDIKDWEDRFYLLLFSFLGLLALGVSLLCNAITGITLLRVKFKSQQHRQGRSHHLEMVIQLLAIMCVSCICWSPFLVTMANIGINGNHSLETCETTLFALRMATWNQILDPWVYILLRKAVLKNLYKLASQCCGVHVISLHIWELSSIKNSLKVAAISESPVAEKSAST
row,SMILES,IC50
1,"COc1cccc(F)c1C(C)(CNC(=O)c1c(C)c(-c2ccccc2)nc2ccc(Br)cc12)CC(=O)O (single isomer, unassigned; (+)) [Example 143, (+)-4-{[(6-Bromo-3-methyl-2-phenylquinolin-4-yl)carbonyl]amino}-3-(2-fluoro-6-methoxyphenyl)-3-methylbutanoic Acid]",6.8 nM
2,"Cc1c(-c2ccccc2)nc2ccc(Br)cc2c1C(=O)NCC(C(=O)O)c1ccccc1 (single isomer, unassigned; (-)) [Example 2, (−)-3-{[(6-Bromo-3-methyl-2-phenylquinolin-4-yl)carbonyl]amino}-2-phenylpropanoic Acid]",160 nM
3,"Cc1c(-c2ccccc2)nc2ccc(Br)cc2c1C(=O)NCC(C)(C(=O)O)c1ncccc1Cl (single isomer, unassigned) [Example 27, 3-{[(6-Bromo-3-methyl-2-phenylquinolin-4-yl)carbonyl]amino}-2-(3-chloropyridin-2-yl)-2-methylpropanoic Acid]",53 nM
4,"COc1cccc(F)c1C(C)(CNC(=O)c1c(C)c(-c2ccccc2)nc2ccc(Br)cc12)CC(=O)O (single isomer, unassigned; (-)) [Example 144, (−)-4-{[(6-Bromo-3-methyl-2-phenylquinolin-4-yl)carbonyl]amino}-3-(2-fluoro-6-methoxyphenyl)-3-methylbutanoic Acid]",130 nM
5,"Cc1c(-c2ccccc2)nc2ccc(Br)cc2c1C(=O)NC(C)C(CC(=O)O)c1ccccc1Cl (racemic) [Example 145, (+/−)-4-{[(6-Bromo-3-methyl-2-phenylquinolin-4-yl)carbonyl]amino}-3-(2-chlorophenyl)pentanoic Acid]",49 nM
6,"Cc1c(-c2ccccc2)nc2ccc(Br)cc2c1C(=O)NCC(C)(CCCC(=O)O)c1ccccc1 (racemic) [Example 243, (+/−)-6-{[(6-Bromo-3-methyl-2-phenylquinolin-4-yl)carbonyl]amino}-5-methyl-5-phenylhexanoic Acid]",31 nM
7,"Cc1c(-c2ccccc2)nc2ccc(Br)cc2c1C(=O)NCC(C)(C(=O)O)c1cccc(C(F)(F)F)c1 (racemic) [Example 41, (+/−)-3-{[(6-Bromo-3-methyl-2-phenylquinolin-4-yl)carbonyl]amino}-2-methyl-2-[3-(trifluoromethyl)phenyl]propanoic Acid]",130 nM
8,"Cc1c(-c2ccccc2)nc2ccc(Br)cc2c1C(=O)NCC(C(=O)O)c1ccc2c(c1)OCO2 (single isomer, unassigned) [Example 25, 2-(1,3-Benzodioxol-5-yl)-3-{[(6-bromo-3-methyl-2-phenylquinolin-4-yl)carbonyl]amino}propanoic Acid]",> 1000 nM
9,"COc1ccccc1C(CNC(=O)c1c(C)c(-c2ccccc2)nc2ccc(Br)cc12)N1CCC(C(=O)O)C1 (stereo not shown) [Example 246, 1-[2-{[(6-Bromo-3-methyl-2-phenylquinolin-4-yl)carbonyl]amino}-1-(2-methoxyphenyl)ethyl]pyrrolidine-3-carboxylic Acid]",94 nM

# Second part, the compound after the results:
row,IC50,SMILES
1,7.2 nM,"COc1ccccc1C(CNC(=O)c1c(C)c(-c2ccccc2)nc2ccc(Br)cc12)C(=O)O (single isomer, unassigned; (+)) [Example 9, (+)-3-{[(6-Bromo-3-methyl-2-phenylquinolin-4-yl)carbonyl]amino}-2-(2-methoxyphenyl)propanoic Acid]"
2,51 nM,"Cc1c(-c2ccccc2)nc2ccc(Br)cc2c1C(=O)NCC(CC(=O)O)c1ccccc1C(F)(F)F (single isomer, unassigned; (-)) [Example 107, (−)-4-{[(6-Bromo-3-methyl-2-phenylquinolin-4-yl)carbonyl]amino}-3-[2-(trifluoromethyl)phenyl]butanoic Acid]"
3,6.2 nM,"Cc1c(-c2ccccc2)nc2ccc(Br)cc2c1C(=O)NCC(CCC(=O)O)c1c(Cl)ccc(F)c1F (single isomer, unassigned; (+)) [Example 202, (+)-5-{[(6-Bromo-3-methyl-2-phenylquinolin-4-yl)carbonyl]amino}-4-(6-chloro-2,3-difluorophenyl)pentanoic Acid]"
4,8 nM,"C#Cc1ccc2nc(-c3ccccc3)c(C)c(C(=O)NCC(CCC(=O)O)c3ccccc3Cl)c2c1 (single isomer, unassigned; (+)) [Example 220, (+)-4-(2-Chlorophenyl)-5-{[(6-ethynyl-3-methyl-2-phenylquinolin-4-yl)carbonyl]amino}pentanoic Acid]"
5,26 nM,"Cc1c(-c2ccccc2)nc2ccc(Br)cc2c1C(=O)NCC(C)(CCC(=O)O)c1cc(F)ccc1Cl (racemic) [Example 169, (+/−)-5-{[(6-Bromo-3-methyl-2-phenylquinolin-4-yl)carbonyl]amino}-4-(2-chloro-5-fluorophenyl)-4-methylpentanoic Acid]"
6,25 nM,"Cc1c(-c2ccccc2)nc2ccc(Br)cc2c1C(=O)NCC(CCC(=O)O)c1cc(F)cc(F)c1F (single isomer, unassigned) [Example 233, 5-{[(6-Bromo-3-methyl-2-phenylquinolin-4-yl)carbonyl]amino}-4-(2,3,5-trifluorophenyl)pentanoic Acid]"
7,1.2 nM,"Cc1c(-c2ccccc2)nc2ccc(Br)cc2c1C(=O)NCC(CCC(=O)O)c1c(Cl)ccc(F)c1F (single isomer, unassigned; (-)) [Example 201, (−)-5-{[(6-Bromo-3-methyl-2-phenylquinolin-4-yl)carbonyl]amino}-4-(6-chloro-2,3-difluorophenyl)pentanoic Acid]"
8,51 nM,"Cc1c(-c2ccccc2)nc2ccc(Br)cc2c1C(=O)NCC(CC(=O)O)c1c(Cl)cccc1Cl (single isomer, unassigned) [Example 80, 4-{[(6-Bromo-3-methyl-2-phenylquinolin-4-yl)carbonyl]amino}-3-(2,6-dichlorophenyl)butanoic Acid]"
9,33 nM,"Cc1c(-c2ccccc2)nc2ccc(Br)cc2c1C(=O)NCC(C(=O)O)c1cccc(Cl)c1 (single isomer, unassigned; (-)) [Example 48, (−)-3-{[(6-Bromo-3-methyl-2-phenylquinolin-4-yl)carbonyl]amino}-2-(3-chlorophenyl)propanoic Acid]"
10,11 nM,"Cc1c(-c2ccccc2)nc2ccc(Br)cc2c1C(=O)NCC(C)(CCC(=O)O)c1cc(F)ccc1Cl (single isomer, unassigned; (+)) [Example 171, (+)-5-{[(6-Bromo-3-methyl-2-phenylquinolin-4-yl)carbonyl]amino}-4-(2-chloro-5-fluorophenyl)-4-methylpentanoic Acid]"
11,3.7 nM,"Cc1c(-c2ccccc2)nc2ccc(Br)cc2c1C(=O)NCC(CCC(=O)O)c1ccccc1C(F)(F)F (single isomer, unassigned; (-)) [Example 204, (−)-5-{[(6-Bromo-3-methyl-2-phenylquinolin-4-yl)carbonyl]amino}-4-[2-(trifluoromethyl)phenyl]pentanoic Acid]"
12,68 nM,"Cc1c(-c2ccccc2)nc2ccc(Br)cc2c1C(=O)NCC(C)(C(=O)O)c1ccccc1F (single isomer, unassigned; (-)) [Example 31, (−)-3-{[(6-Bromo-3-methyl-2-phenylquinolin-4-yl)carbonyl]amino}-2-(2-fluorophenyl)-2-methylpropanoic Acid]"
13,21 nM,"COc1cccc(F)c1C(CNC(=O)c1c(C)c(-c2ccccc2)nc2ccc(Br)cc12)C(=O)O (racemic) [Example 56, (+/−)-3-{[(6-Bromo-3-methyl-2-phenylquinolin-4-yl)carbonyl]amino}-2-(2-fluoro-6-methoxyphenyl)propanoic Acid]"
